Measurements reported in patent US9156815B2, “Salt of (R)-3-(6-amino-pyridin-3-yl)-2-(1-Cyclohexyl-1H-imidazol-4-yl) ethyl propionate” (Sanofi, priority 2011, dated 2015).
Structures can show the parent of a compound that is named as a salt.

How the values were obtained:
Type in all cases: physicochemical
[1] = Physical stability, storage for 14 days (XRPD, thermogravimetry); settings: stored 14 days under conditions (A) to (D)
Protocol: Representative samples of the crystalline salt of (R)-3-(6-aminopyridin-3-yl)-2-(1-cyclohexyl-1H-imidazol-4-yl)propionic acid ethyl ester with naphthalene-1,5-disulfonic acid prepared as in example 1 are stored for 14 days under the conditions (A), (B), (C) and (D): • (A) 50° C. • (B) 50° C. and 80% relative atmospheric humidity • (C) 80° C. • (D) 80° C. and 80% relative atmospheric humidity Results:
Only a slight loss in mass during the thermogravimetric measurements (apparatus TA Instruments: TGA Q500, atmospheric nitrogen; rate 10° C./min) is observed, which is attributed to the release of water from the crystals.

[2] = Chiral stability, storage for 14 days (chiral HPLC)
Protocol: Representative samples of the crystalline salt of (R)-3-(6-aminopyridin-3-yl)-2-(1-cyclohexyl-1H-imidazol-4-yl)propionic acid ethyl ester with naphthalene-1,5-disulfonic acid prepared as in example 1 are stored for 14 days under the conditions (A), (B), (C) and (D) described in example 4:
The measurements were carried out using chromatography on chiral phase as described in example 1.
Chiral HPLC: (Chiralcel OD-H/84 (250×4.6 mm), heptane:Isopropanol:Acetonitrile 15:1:0.5+0.1% diethylamine (DEA), 30° C., 1 ml/min): Rt=27.01 min.

[3] = Salt screening of the API with acids and solvents, XRPD measurement; parameters: key: NKP means no crystalline phase; KFA means free acid crystallizes; settings: API + acid
Protocol: The molar ratio between the H^+ concentration of the acid and of the API is 2 (for details see table 2). In each cavity of the microtiter plate, 68 microliters of the dissolved API are mixed with 40 microliters of the 0.1 normal acid solutions.
68 microliters of the dissolved API are pipetted into each cavity of a 96 microtiter plate. Then, in each case 40 microliters of the acids dissolved as in table 2 are added according to the scheme as detailed in table 3. The microtiter plate is shaken at room temperature for 20 min so that an equilibrium is formed in the cavities. Evaporation of the solvents at room temperature in a stream of nitrogen for 2 hours. Then, in each case 40 microliters of the solvents according to the scheme as detailed in table 3 are added. The microtiter plate is shaken at room temperature for 20 min so that an equilibrium is formed in the cavities. Evaporation of the solvent then takes place at room temperature in a stream of nitrogen for 2 hours. Finally, XRPD measurement is carried out.

Compound | XRPD measurements at the start and after 14 days [1] | increase of the (S) enantiomer ([2]; 14 days, 50° C. (A)) [%] | increase of the (S) enantiomer ([2]; 14 days, 50° C. and 80% relative atmospheric humidity (B)) [%] | change of enantiomeric purity ([2]; 14 days, 80° C. (C)) | increase of the (S) enantiomer ([2]; 14 days, 80° C. and 80% relative atmospheric humidity (D)) [%] | Enantiomeric purity ([2]; 14 days, storage condition (A) 50° C.) [%] | Enantiomeric purity ([2]; 14 days, storage condition (B) 50° C. and 80% relative atmospheric humidity) [%] | Enantiomeric purity ([2]; 14 days, storage condition (C) 80° C.) [%] | Enantiomeric purity ([2]; 14 days, storage condition (D) 80° C. and 80% relative atmospheric humidity) [%] | Enantiomeric purity ([2]; at the start of the measurement) [%] | XRPD result of salt screening ([3]; solvent 2-Methyl-1-propanol) | XRPD result of salt screening ([3]; solvent 2-Propanol) | XRPD result of salt screening ([3]; solvent Butyl acetate) | XRPD result of salt screening ([3]; solvent Ethanol) | XRPD result of salt screening ([3]; solvent Methanol) | XRPD result of salt screening ([3]; solvent Methyl ethyl ketone) | XRPD result of salt screening ([3]; solvent Water) | XRPD result of salt screening ([3]; solvent Water:methanol 1:1)
CCOC(=O)[C@H](Cc1ccc(N)nc1)c1cn(C2CCCCC2)cn1 [Example 1, crystalline salt of (R)-3-(6-aminopyridin-3-yl)-2-(1-cyclohexyl-1H-imidazol-4-yl)propionic acid ethyl ester with naphthalene-1,5-disulfonic acid] | close together | 0.2 | 0.2 | no change | 2.7 | 98.8 | 98.8 | 99.0 | 96.3 | 99.0 |  |  |  |  |  |  |  | 
Benzoic acid |  |  |  |  |  |  |  |  |  |  | KFA | KFA | KFA | KFA | KFA | KFA | KFA | NKP
Citric acid |  |  |  |  |  |  |  |  |  |  | NKP | NKP | NKP | NKP | NKP | NKP | NKP | NKP
Malonic acid |  |  |  |  |  |  |  |  |  |  | NKP | NKP | NKP | NKP | NKP | NKP | NKP | NKP
Sulfuric acid |  |  |  |  |  |  |  |  |  |  | NKP | NKP | NKP | NKP | NKP | NKP | NKP | NKP

Further lines, results first:

XRPD measurements at the start and after 14 days [1] | increase of the (S) enantiomer ([2]; 14 days, 50° C. (A)) [%] | increase of the (S) enantiomer ([2]; 14 days, 50° C. and 80% relative atmospheric humidity (B)) [%] | change of enantiomeric purity ([2]; 14 days, 80° C. (C)) | increase of the (S) enantiomer ([2]; 14 days, 80° C. and 80% relative atmospheric humidity (D)) [%] | Enantiomeric purity ([2]; 14 days, storage condition (A) 50° C.) [%] | Enantiomeric purity ([2]; 14 days, storage condition (B) 50° C. and 80% relative atmospheric humidity) [%] | Enantiomeric purity ([2]; 14 days, storage condition (C) 80° C.) [%] | Enantiomeric purity ([2]; 14 days, storage condition (D) 80° C. and 80% relative atmospheric humidity) [%] | Enantiomeric purity ([2]; at the start of the measurement) [%] | XRPD result of salt screening ([3]; solvent 2-Methyl-1-propanol) | XRPD result of salt screening ([3]; solvent 2-Propanol) | XRPD result of salt screening ([3]; solvent Butyl acetate) | XRPD result of salt screening ([3]; solvent Ethanol) | XRPD result of salt screening ([3]; solvent Methanol) | XRPD result of salt screening ([3]; solvent Methyl ethyl ketone) | XRPD result of salt screening ([3]; solvent Water) | XRPD result of salt screening ([3]; solvent Water:methanol 1:1) | Compound
 |  |  |  |  |  |  |  |  |  | KFA | KFA | KFA | KFA | KFA | KFA | KFA | NKP | Adipic acid
 |  |  |  |  |  |  |  |  |  | NKP | NKP | NKP | NKP | NKP | NKP | NKP | NKP | Fumaric acid
 |  |  |  |  |  |  |  |  |  | NKP | NKP | NKP | NKP | NKP | NKP | NKP | NKP | Glucuronic acid
 |  |  |  |  |  |  |  |  |  | NKP | NKP | NKP | NKP | NKP | NKP | NKP | NKP | Tartaric acid
